Measurements published in the supplement of paper PMC4862054.
“And” between values parts separate entries of the source, which are not always exact repeats. Equal entries are not always repeated.

Legend:
Conditions in all cases: incubation time: 72 h
[1] = tested on: CAL-85-1; assay: normalised viability (% of control), CellTiter-Blue; higher = more viable cells (about 100 = DMSO control)
Summary of the method: (§1)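 The reported quantity is normalised viability at a single listed concentration of the series. Compound in 5 µl medium was pre-dispensed into 384-well plates and 20 µl of breast cancer cell suspension was added for 72 h. A 2 h, 37 °C CellTiter-Blue step (2.5 µl) preceded fluorescence reading at 560/590 nm, and plates were normalised to vehicle (100) and a positive kill control (0).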

[2] = tested on: MDA-MB-453; assay: as above
Summary of the method: as §1

[3] = tested on: HCC1937; assay: as above
Summary of the method: as §1

[4] = tested on: HDQ-P1; assay: as above
Summary of the method: as §1

[5] = tested on: CAL-120; assay: as above
Summary of the method: as §1

[6] = tested on: HCC1143; assay: as above
Summary of the method: as §1

[7] = tested on: BT-549; assay: as above
Summary of the method: as §1

[8] = tested on: CAL-148; assay: as above
Summary of the method: as §1

[9] = tested on: MDA-MB-468; assay: as above
Summary of the method: as §1

[10] = tested on: BT-474; assay: as above
Summary of the method: as §1

[11] = tested on: MDA-MB-436; assay: as above
Summary of the method: as §1

[12] = tested on: CAL-85-1; assay: drug sensitivity score (DSS), CellTox Green (DSS (AUC-based score)); higher = stronger drug effect (viability inhibition or cytotoxicity); extreme values may be limits of the assay
Summary of the method: (§2)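 After 72 h of incubation in 384-well plates with compound at 5 concentrations (10-fold steps, 10,000-fold range set per compound), breast cancer cell lines seeded in 20 µl suspension were read first for CellTox Green fluorescence at 485/520 nm. CellTiter-Glo luminescence was measured next, after 10 min at room temperature. Normalisation on each plate used 0.1 % DMSO and a positive kill control, and the drug sensitivity score was computed from the area under the fitted dose-response curve.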

[13] = tested on: HCC1599; assay: as above
Summary of the method: as §2

[14] = tested on: MDA-MB-231; assay: as above
Summary of the method: as §2

[15] = tested on: DU-4475; assay: as above
Summary of the method: as §2

[16] = tested on: MDA-MB-453; assay: as above
Summary of the method: as §2

[17] = tested on: HCC1937; assay: as above
Summary of the method: as §2

[18] = tested on: CAL-120; assay: as above
Summary of the method: as §2

[19] = tested on: MCF-10A; assay: as above
Summary of the method: as §2

[20] = tested on: MFM-223; assay: as above
Summary of the method: as §2

[21] = tested on: HCC1143; assay: as above
Summary of the method: as §2

[22] = tested on: CAL-51; assay: as above
Summary of the method: as §2

[23] = tested on: BT-549; assay: as above
Summary of the method: as §2

[24] = tested on: BT-474; assay: as above
Summary of the method: as §2

[25] = tested on: MDA-MB-436; assay: as above
Summary of the method: as §2

CO[C@H](C(=O)[C@@H](O)[C@@H](C)O)[C@@H]1Cc2cc3cc(O[C@H]4C[C@@H](O[C@@H]5C[C@@H](O)[C@H](O)[C@@H](C)O5)[C@H](O)[C@@H](C)O4)c(C)c(O)c3c(O)c2C(=O)[C@H]1O[C@H]1C[C@@H](O[C@@H]2C[C@@H](O)[C@@H](O[C@@H]3C[C@](C)(O)[C@H](O)[C@@H](C)O3)[C@@H](C)O2)[C@H](O)[C@@H](C)O1 [Plicamycin]
Conditions | normalised viability
[1], 3 nM | 87.3% and 88.3%
[1], 30 nM | 89.2% and 83.9%
[1], 100 nM | 51.5% and 39.5%
[2], 3 nM | 109% and 113%
[2], 30 nM | 99.8% and 92.6%
[2], 100 nM | 48.3% and 34.6%
[3], 10 nM | 85.8% and 78.5%
[3], 1000 nM | 22.1% and 19.5%
[3], 10000 nM | 29.1% and 20.6%
[4], 30 nM | 104% and 80.5%
[4], 100 nM | 68.5% and 44.6%
[5], 10 nM | 89.5% and 75.6%
[5], 1000 nM | 13.4% and 10.2%
[5], 10000 nM | 11.9% and 9.12%
[6], 10 nM | 84.9% and 62.2%
[6], 1000 nM | 22% and 14.7%
[6], 10000 nM | 16.7% and 14.6%
[7], 10 nM | 94.7% and 83.2%
[7], 1000 nM | 6.74% and 5.38%
[7], 10000 nM | 6.68% and 5.22%
[8], 3 nM | 87.7%
[8], 30 nM | 95.3% and 99.5%
[8], 100 nM | 26% and 38.8%
[9], 10 nM | 91.4% and 92.1%
[9], 1000 nM | 3.16% and 3.32%
[9], 10000 nM | 2.7% and 3.47%
[10], 10 nM | 122% and 103%
[10], 1000 nM | 36% and 23.9%
[10], 10000 nM | 22.1% and 26.4%
[11], 10 nM | 95.2% and 75.5%
[11], 1000 nM | 25.8% and 19.9%
[11], 10000 nM | 21.7% and 13.9%

Conditions | drug sensitivity score
[12] | 1.48
[13] | 0
[14] | 0
[15] | 0
[16] | 1.33
[17] | 0
[18] | 0
[19] | 6.07
[20] | 0
[21] | 0
[22] | 7.69
[23] | 0
[24] | 0
[25] | 0

C[C@@H](C(=O)O)c1ccc(-c2ccccc2)c(F)c1 [Tarenflurbil]
normalised viability [%]
Conditions | 3 nM | 10 nM | 30 nM | 100 nM | 1000 nM | 10000 nM
[1] | 87.2 | – | 88.4 | 93 | – | –
[2] | 106 | – | 89.2 | 85.6 | – | –
[3] | – | 84.3 | – | – | 92.9 | 102
[4] | 106 | – | 106 | 98.9 | – | –
[5] | – | 94 | – | – | 92.2 | 99.4
[6] | – | 86.4 | – | – | 95.3 | 86.9
[7] | – | 97.6 | – | – | 104 | 112
[8] | 80 | – | 96.6 | 87.3 | – | –
[9] | – | 100 | – | – | 119 | 90
[10] | – | 112 | – | – | 107 | 113
[11] | – | 104 | – | – | 90.4 | 138

Conditions | drug sensitivity score
[12] | 0
[13] | 0
[14] | 0
[15] | 0
[16] | 0
[17] | 0
[18] | 0
[19] | 0.986
[20] | 0
[21] | 0
[22] | 0
[23] | 0
[24] | 0.00754
[25] | 0

N[C@@H](Cc1ccc(N(CCCl)CCCl)cc1)C(=O)O [Melphalan]
normalised viability [%]
Conditions | 0.297 nM | 0.99 nM | 2.97 nM | 9.9 nM | 99 nM | 990 nM
[1] | 94.8 | – | 91.2 | 96.6 | – | –
[2] | 105 | – | 101 | 102 | – | –
[3] | – | 89 | – | – | 64.2 | 39.5
[4] | 117 | – | 94 | 91.2 | – | –
[5] | – | 74.3 | – | – | 71.6 | 64.3
[6] | – | 67.8 | – | – | 70.3 | 67.8
[7] | – | 92.7 | – | – | 115 | 89.3
[8] | 92.6 | – | 94.5 | 91.4 | – | –
[9] | – | 95.7 | – | – | 99.7 | 63
[10] | – | 99.9 | – | – | 98 | 99.1
[11] | – | 88.2 | – | – | 90 | 75.4

Conditions | drug sensitivity score
[12] | 18.1
[13] | 11.8
[14] | 23.9
[15] | 11.5
[16] | 16.9
[17] | 15.4
[18] | 9.72
[19] | 19.3
[20] | 16.5
[21] | 7.18
[22] | 21.7
[23] | 13.4
[24] | 18.1
[25] | 8.42

Cn1nnc2c(C(N)=O)ncn2c1=O [Temozolomide]
normalised viability [%]
Conditions | 3 nM | 10 nM | 30 nM | 100 nM | 1000 nM | 10000 nM
[1] | 102 | – | 98.2 | 107 | – | –
[2] | 112 | – | 108 | 100 | – | –
[3] | – | 88.3 | – | – | 105 | 116
[4] | 95.6 | – | 88.5 | 27.3 | – | –
[5] | – | 101 | – | – | 104 | 100
[6] | – | 90.5 | – | – | 95.9 | 102
[7] | – | 105 | – | – | 91.6 | 74.7
[8] | 94 | – | 88.8 | 93 | – | –
[9] | – | 92.3 | – | – | 89.5 | 99.1
[10] | – | 94.7 | – | – | 100 | 87.5
[11] | – | 102 | – | – | 91.3 | 101

Conditions | drug sensitivity score
[12] | 0
[13] | 0
[14] | 0
[15] | 0
[16] | 0
[17] | 0
[18] | 0
[19] | 0
[20] | 0
[21] | 0
[22] | 0
[23] | 0
[24] | 0
[25] | 0

NC1(c2ccc(-c3nc4ccn5c(=O)[nH]nc5c4cc3-c3ccccc3)cc2)CCC1 [MK-2206]
normalised viability [%]
Conditions | 0.3 nM | 1 nM | 3 nM | 10 nM | 100 nM | 1000 nM
[1] | 104 | – | 95 | 100 | – | –
[2] | 112 | – | 95.2 | 96.6 | – | –
[3] | – | 87.4 | – | – | 98.5 | 104
[4] | 110 | – | 111 | 109 | – | –
[5] | – | 111 | – | – | 106 | 79.2
[6] | – | 105 | – | – | 108 | 87.7
[7] | – | 101 | – | – | 106 | 85.3
[8] | 102 | – | 106 | 110 | – | –
[9] | – | 108 | – | – | 90.7 | 72.9
[10] | – | 115 | – | – | 92.3 | 54
[11] | – | 104 | – | – | 80.7 | 81

Conditions | drug sensitivity score
[12] | 0
[13] | 0
[14] | 0
[15] | 0
[16] | 0
[17] | 0
[18] | 0
[19] | 0
[20] | 0
[21] | 0
[22] | 0
[23] | 0
[24] | 0
[25] | 0

C[C@@H]1C[C@H]2[C@@H]3CCC4=CC(=O)C=C[C@]4(C)[C@@]3(F)[C@@H](O)C[C@]2(C)[C@@]1(O)C(=O)CO [Dexamethasone]
normalised viability [%]
Conditions | 3 nM | 10 nM | 30 nM | 100 nM | 1000 nM | 10000 nM
[1] | 102 | – | 93.1 | 110 | – | –
[2] | 110 | – | 78.2 | 76.3 | – | –
[3] | – | 82.5 | – | – | 100 | 78.9
[4] | 111 | – | 100 | 108 | – | –
[5] | – | 76 | – | – | 77 | 80.1
[6] | – | 76.5 | – | – | 89.1 | 81.2
[7] | – | 93.6 | – | – | 90.3 | 93.5
[8] | 93.6 | – | 108 | 99.2 | – | –
[9] | – | 114 | – | – | 112 | 100
[10] | – | 110 | – | – | 119 | 118
[11] | – | 127 | – | – | 89.6 | 104

Conditions | drug sensitivity score
[12] | 0
[13] | 0
[14] | 0
[15] | 0
[16] | 0
[17] | 0
[18] | 0
[19] | 3.19
[20] | 0
[21] | 0
[22] | 0
[23] | 0
[24] | 0
[25] | 0

Cc1cc2c(F)c(Oc3ncnn4cc(OC[C@@H](C)O)c(C)c34)ccc2[nH]1 [Brivanib]
normalised viability [%]
Conditions | 0.3 nM | 1 nM | 3 nM | 10 nM | 100 nM | 1000 nM
[1] | 88.4 | – | 86.2 | 89.1 | – | –
[2] | 99.6 | – | 110 | 101 | – | –
[3] | – | 87.8 | – | – | 104 | 97.6
[4] | 94.9 | – | 115 | 96.3 | – | –
[5] | – | 89.3 | – | – | 82.5 | 93.2
[6] | – | 85.2 | – | – | 83.3 | 84.3
[7] | – | 107 | – | – | 90.6 | 109
[8] | 92.7 | – | 90.8 | 93.1 | – | –
[9] | – | 93.7 | – | – | 111 | 112
[10] | – | 112 | – | – | 117 | 94.5
[11] | – | 113 | – | – | 93 | 96.4

Conditions | drug sensitivity score
[12] | 0.499
[13] | 0
[14] | 0
[15] | 0
[16] | 0
[17] | 0
[18] | 0
[19] | 0
[20] | 0
[21] | 0
[22] | 0
[23] | 0
[24] | 0
[25] | 2.68
